EPA's ToxValDB 9.5 (doi:10.2903/j.efsa.2011.2091)
Converted amounts (≈) assume the structure as drawn.

Tests used:
Anas platyrhynchos = settings: reproductive; mortality
Bibionidae = settings: chronic/long-term; duration: 28 days; development
Colinus virginianus = settings: acute, oral, mortality; for LC50: diet
Apis mellifera = settings: acute, mortality
Daphnia magna = settings: chronic/long-term; duration: 21 days; reproduction
Landoltia sp. = settings: acute; duration: 14 days; frond number
Lepomis macrochirus = settings: acute; duration: 96 hours; mortality
Oncorhynchus mykiss = settings: chronic/long-term; duration: 21 days; mortality
Oryctolagus sp. = settings: chronic; mortality

CCCCCCC(C)OC(=O)COc1nc(F)c(Cl)c(N)c1Cl (centres undefined) [Fluroxypyr-meptyl]
NOEC (Anas platyrhynchos): 57.8 mg/kg-day | NOEC (Bibionidae): 0.13 mg/L | LC50 (Colinus virginianus): > 1040 mg/kg-day | LD50 (Colinus virginianus): > 2000 mg/kg-day | LD50 (Rattus norvegicus; acute, oral, mortality): > 2000 mg/kg-day

Nc1c(Cl)c(F)nc(OCC(=O)O)c1Cl [Fluroxypyr]
NOEC (Anas platyrhynchos): 40.1 mg/kg-day | LD50 (Apis mellifera; dermal): > 180 µg/piece | LD50 (Apis mellifera; oral, unspecified): 37.1 µg/piece | LC50 (Colinus virginianus): > 757 mg/kg-day | LD50 (Colinus virginianus): > 2000 mg/kg-day | NOEC (Daphnia magna): 56 mg/L | LC50 (Landoltia sp.): 12.3 µg/mL (≈ 48.2 µM) | LC50 (Lepomis macrochirus): 14.3 µg/mL (≈ 56.1 µM) | NOEC (Oncorhynchus mykiss): 100 mg/L | NOEL (Oryctolagus sp.): 100 mg/kg-day | NOAEL (Rattus norvegicus; chronic, duration: 2 years): 80 mg/kg-day | NOAEL (Rattus norvegicus; subchronic, oral): 80 mg/kg-day | LC50 (Tagia sp.; acute, duration: 14 days, mortality): 64.8 mg/kg | NOEC (Tagia sp.; chronic/long-term, duration: 56 days): 3.05 mg/kg
